The results in this text go back to PubChem BioAssay AID248 (DTP/NCI, 2004).

Values joined by “and” are separate entries in the source; they are usually repeats but may differ in a detail not shown here. Identical values can stand only once. Inconclusive results and toxic doses are left out.

This assay relates to L1210 leukemia ip in BDF1 mice, survival T/C. Kind of assay: NCI In Vivo Anticancer Drug Screen. Data for tumor model L1210 Leukemia (intraperitoneal) in B6D2F1 (BDF1) mice. As to conditions: endpoint: mean survival time, higher = longer survival. A digest of the protocol: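 Ratio derived from survival: compound-dosed mice over vehicle-dosed mice, all bearing a transplantable tumor.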

The mark [1] stands for this setting: dose: 100.0 mg/kg/injection, schedule: Q01DX001 (ip), vehicle: carboxymethylcellulose (CMC).
Where [2] appears, read: dose: 200.0 mg/kg/injection, schedule: Q01DX001 (ip), vehicle: carboxymethylcellulose (CMC).
Setting [3] is: dose: 400.0 mg/kg/injection, schedule: Q01DX001 (ip), vehicle: carboxymethylcellulose (CMC).
Setting [4] is: dose: 100.0 mg/kg/injection, schedule: Q04DX003 (ip), vehicle: saline.
Setting [5] is: dose: 200.0 mg/kg/injection, schedule: Q04DX003 (ip), vehicle: saline.
Where [6] appears, read: dose: 100.0 mg/kg/injection, schedule: Q01DX009 (ip), vehicle: saline with Tween-80.
Where [7] appears, read: dose: 100.0 mg/kg/injection, schedule: Q04DX003 (ip), vehicle: saline with Tween-80.
[8] abbreviates: dose: 200.0 mg/kg/injection, schedule: Q01DX009 (ip), vehicle: saline with Tween-80.
Setting [9] is: dose: 200.0 mg/kg/injection, schedule: Q04DX003 (ip), vehicle: saline with Tween-80.

As for `C[n+]1c(-c2ccccc2)c2ccccc2c2ccccc21`, the T/C is, setting by setting: (dose: 0.78 mg/kg/injection, schedule: Q01DX009 (ip), vehicle: water) 91 % of control; (dose: 1.56 mg/kg/injection, schedule: Q01DX009 (ip), vehicle: water) 96 % of control; (dose: 1.56 mg/kg/injection, schedule: Q04DX003 (ip), vehicle: water) 103 % of control; (dose: 3.12 mg/kg/injection, schedule: Q01DX009 (ip), vehicle: water) 93 % of control; (dose: 3.12 mg/kg/injection, schedule: Q04DX003 (ip), vehicle: water) 97 % of control; (dose: 6.25 mg/kg/injection, schedule: Q04DX003 (ip), vehicle: water) 108 % of control.

Regarding `Cc1cccc(NC(=S)N(CCC#N)C2CCCCC2)c1`, the T/C is, setting by setting: under setting [1], 95 % of control; under setting [2], 90 % of control; under setting [3], 101 % of control.

Turning to `CC(NC(=O)c1ccc2ccccc2n1)C(=O)O` (stereo unspecified), the T/C is 92 % of control under setting [1], 87 % of control under setting [2] and 89 % of control under setting [3].

With `Cc1ccc(C(=O)Nc2ncn(C3CC(O)C(CO)O3)c(=O)n2)cc1` (stereo unspecified), the T/C by setting is: (dose: 6.25 mg/kg/injection, schedule: Q04DX003 (ip), vehicle: saline with Tween-80) 114 % of control; (dose: 12.5 mg/kg/injection, schedule: Q01DX003 (ip), vehicle: saline with Tween-80) 245 % of control; (dose: 12.5 mg/kg/injection, schedule: Q01DX005 (ip), vehicle: saline) 187 % of control; (dose: 12.5 mg/kg/injection, schedule: Q04DX003 (ip), vehicle: saline with Tween-80) 172 % of control; (dose: 25.0 mg/kg/injection, schedule: Q01DX003 (ip), vehicle: saline with Tween-80) 152 % of control; (dose: 25.0 mg/kg/injection, schedule: Q04DX003 (ip), vehicle: saline with Tween-80) 156 % of control and 185 % of control. The T/C runs as follows: (dose: 50.0 mg/kg/injection, schedule: Q01DX003 (ip), vehicle: saline with Tween-80) 111 % of control; (dose: 50.0 mg/kg/injection, schedule: Q01DX005 (ip), vehicle: saline) 90 % of control.

With `CCCN(CCC)CC(C)O` (stereo unspecified), the T/C reads like this: under setting [4], 93 % of control; under setting [5], 97 % of control.

For the compound `Cc1ccc(S(=O)(=O)OCC2COC(C(Cl)(Cl)Cl)O2)cc1` (stereo unspecified), the T/C reads like this: under setting [6], 94 % of control; under setting [7], 106 % of control; under setting [8], 92 % of control; under setting [9], 113 % of control; (dose: 400.0 mg/kg/injection, schedule: Q01DX009 (ip), vehicle: saline with Tween-80) 94 % of control; (dose: 400.0 mg/kg/injection, schedule: Q04DX003 (ip), vehicle: saline with Tween-80) 110 % of control.

With `O=C(CCl)Nc1ccc(Br)cc1`, the T/C by setting is: under setting [6], 109 % of control; under setting [8], 96 % of control.

Take `O=c1ccc([N+](=O)[O-])c[nH]1`: the T/C is, setting by setting: (dose: 100.0 mg/kg/injection, schedule: Q01DX009 (ip), vehicle: saline) 97 % of control and 93 % of control; under setting [4], 105 % of control; (dose: 200.0 mg/kg/injection, schedule: Q01DX009 (ip), vehicle: saline) 101 % of control and 100 % of control; under setting [5], 96 % of control and 103 % of control; (dose: 400.0 mg/kg/injection, schedule: Q01DX009 (ip), vehicle: saline) 105 % of control and 95 % of control; (dose: 400.0 mg/kg/injection, schedule: Q04DX003 (ip), vehicle: saline) 94 % of control and 96 % of control.

In the case of `NC(N)=Nc1ccc(Cc2ccc(N=C(N)N)cc2)cc1`, the T/C is 105 % of control (dose: 12.5 mg/kg/injection, schedule: Q01DX Z (oral), vehicle: saline); 103 % of control (dose: 25.0 mg/kg/injection, schedule: Q01DX Z (oral), vehicle: saline); 94 % of control (dose: 50.0 mg/kg/injection, schedule: Q01DX Z (oral), vehicle: saline); 93 % of control (dose: 100.0 mg/kg/injection, schedule: Q01DX Z (oral), vehicle: saline).

For `CCCOP(=O)(OCCC)C(OC(=O)C(C)(C)C)=C(C)C`, the T/C reads like this: under setting [7], 92 % of control; under setting [9], 96 % of control.

Regarding `CCC(C=NCCBr)(CCC(=O)OC)CCC(=O)OC`, the T/C (dose: 100.0 mg/kg/injection, schedule: Q04DX002 (ip), vehicle: saline) was 102 % of control; the T/C (dose: 200.0 mg/kg/injection, schedule: Q04DX002 (ip), vehicle: saline) is 102 % of control; the T/C (dose: 400.0 mg/kg/injection, schedule: Q04DX002 (ip), vehicle: saline) was 112 % of control.

With `OCCN1CCC(CCCC2CCN(CCO)CC2)CC1`, the T/C is, setting by setting: (dose: 10.0 mg/kg/injection, schedule: Q01DX Z (ip), vehicle: saline) 94 % of control; (dose: 30.0 mg/kg/injection, schedule: Q01DX Z (ip), vehicle: saline) 92 % of control; (dose: 100.0 mg/kg/injection, schedule: Q01DX Z (ip), vehicle: saline) 94 % of control.

On to `C=COCCCCCCCCCCCC(CCCCCC)OC=C` (stereo unspecified), for which the T/C (dose: 100.0 mg/kg/injection, schedule: Q04DX002 (ip), vehicle: Klucel (hydroxypropylcellulose) (HPC)) is 94 % of control and the T/C (dose: 200.0 mg/kg/injection, schedule: Q04DX002 (ip), vehicle: Klucel (hydroxypropylcellulose) (HPC)) was 105 % of control.

For `C[Se](=O)O`, the T/C is 94 % of control (dose: 3.13 mg/kg/injection, schedule: Q01DX001 (ip), vehicle: saline); 91 % of control (dose: 6.25 mg/kg/injection, schedule: Q01DX001 (ip), vehicle: saline); 88 % of control (dose: 12.5 mg/kg/injection, schedule: Q01DX001 (ip), vehicle: saline).

With `O=C/C=C/c1cccnc1`, the T/C is, setting by setting: (dose: 25.0 mg/kg/injection, schedule: Q01DX009 (ip), vehicle: saline with Tween-80) 92 % of control; (dose: 50.0 mg/kg/injection, schedule: Q01DX009 (ip), vehicle: saline with Tween-80) 100 % of control; under setting [6], 101 % of control; under setting [8], 99 % of control.

As to `O=C(Nc1ccc(C(F)(F)F)c([N+](=O)[O-])c1)c1ccc(C(=O)Nc2ccc(C(F)(F)F)c([N+](=O)[O-])c2)cc1`, the T/C (dose: 100.0 mg/kg/injection, schedule: Q01DX001 (ip), vehicle: other) was 96 % of control; the T/C (dose: 200.0 mg/kg/injection, schedule: Q01DX001 (ip), vehicle: other) was 93 % of control; the T/C (dose: 400.0 mg/kg/injection, schedule: Q01DX001 (ip), vehicle: other) is 86 % of control.

As to `CC1=C2[C@H]3OC(=O)[C@@H](C)[C@@H]3CC[C@@]2(C)C=C/C1=N\O`, the T/C is, setting by setting: (dose: 100.0 mg/kg/injection, schedule: Q01DX001 (ip), vehicle: saline) 101 % of control; (dose: 200.0 mg/kg/injection, schedule: Q01DX001 (ip), vehicle: saline) 98 % of control.

As for `CC(=O)Oc1cc(C(C)=O)c(O)c2ccccc12`, the T/C by setting is: (dose: 100.0 mg/kg/injection, schedule: Q01DX001 (ip), vehicle: water) 95 % of control; (dose: 200.0 mg/kg/injection, schedule: Q01DX001 (ip), vehicle: water) 93 % of control.

`O=[N+]([O-])c1ccc(Cl)c(OCCOc2ccc(S(=O)(=O)F)cc2)c1`: the T/C was 96 % of control (dose: 100.0 mg/kg/injection, schedule: Q01DX001 (ip), vehicle: saline with Tween-80); 87 % of control (dose: 200.0 mg/kg/injection, schedule: Q01DX001 (ip), vehicle: saline with Tween-80); 90 % of control (dose: 400.0 mg/kg/injection, schedule: Q01DX001 (ip), vehicle: saline with Tween-80).

Turning to `CN1C2CSCC1CC(O)C2` (stereo unspecified), the T/C (dose: 37.0 mg/kg/injection, schedule: Q04DX003 (ip), vehicle: other) was 101 % of control; the T/C (dose: 37.5 mg/kg/injection, schedule: Q01DX009 (ip), vehicle: other) is 105 % of control; the T/C (dose: 75.0 mg/kg/injection, schedule: Q01DX001 (ip), vehicle: other) is 102 % of control; the T/C (dose: 75.0 mg/kg/injection, schedule: Q01DX001 (ip), vehicle: saline) was 103 % of control; the T/C (dose: 75.0 mg/kg/injection, schedule: Q01DX009 (ip), vehicle: other) was 104 % of control; the T/C (dose: 75.0 mg/kg/injection, schedule: Q04DX003 (ip), vehicle: other) was 98 % of control. The T/C (dose: 150.0 mg/kg/injection, schedule: Q01DX001 (ip), vehicle: other) is 93 % of control; the T/C (dose: 150.0 mg/kg/injection, schedule: Q01DX009 (ip), vehicle: other) is 104 % of control; the T/C (dose: 150.0 mg/kg/injection, schedule: Q04DX003 (ip), vehicle: other) is 101 % of control.
